Patent US10100058B2, “Fused heterocyclic compounds as CaM kinase inhibitors” (Gilead Sciences, Inc., priority 2016, dated 2018)

Target: recombinant CaMKIIδ (Homo sapiens (Human), UniProt Q13557)
Assay: CaMKIIδ biochemical assay (HTRF)
Settings: 10 pM CaMKIIδ, 110 nM calmodulin, 12 μM ATP, 1 hour; read-out: CAMKIID-HTRF-384V2 (IC50 - nM)
Protocol: CaMKIIδ Biochemical Assay
The biochemical activity of recombinant CaMKIIδ was measured by monitoring the phosphorylation of a target peptide using Homogenous Time Resolved Fluorescence (HTRF) technology from CisBio Bioassays.

Row | SMILES | IC50
1 | CCN(CC)[C@@H](C)CNC(=O)c1cc(-c2cnoc2)nc(-c2cnn3ccc(-c4cccs4)nc23)c1 [Example 335, (S)—N-(2-(diethylamino)propyl)-2-(isoxazol-4-yl)-6-(5-(thiophen-2-yl)pyrazolo[1,5-a]pyrimidin-3-yl)isonicotinamide] | 0.29 nM
2 | CCN(CC)[C@@H](C)CNC(=O)c1cc(-c2cnn3ccc(-c4cccs4)nc23)nc(-c2cnn3ccc(-c4cccs4)nc23)c1 [Example 337, (S)—N-(2-(diethylamino)propyl)-2,6-bis(5-(thiophen-2-yl)pyrazolo[1,5-a]pyrimidin-3-yl)isonicotinamide] | 0.33 nM
3 | CCN(CC)[C@@H](C)CNC(=O)c1cc(-c2nccs2)nc(-c2cnn3ccc(-c4cccs4)nc23)c1 [Example 338, (S)—N-(2-(diethylamino)propyl)-2-(thiazol-2-yl)-6-(5-(thiophen-2-yl)pyrazolo[1,5-a]pyrimidin-3-yl)isonicotinamide] | 0.86 nM
4 | CCN(CC)[C@@H](C)CNC(=O)c1cc(-c2ncco2)nc(-c2cnn3ccc(-c4cccs4)nc23)c1 [Example 339, (S)—N-(2-(diethylamino)propyl)-2-(oxazol-2-yl)-6-(5-(thiophen-2-yl)pyrazolo[1,5-a]pyrimidin-3-yl)isonicotinamide] | 0.35 nM
5 | CCN(CC)[C@@H](C)CNC(=O)c1cc(OC[C@H](C)OC)nc(-c2cnn3ccc(-c4cccs4)nc23)c1 [Example 344, N—((S)-2-(diethylamino)propyl)-2-((S)-2-methoxypropoxy)-6-(5-(thiophen-2-yl)pyrazolo[1,5-a]pyrimidin-3-yl)isonicotinamide] | 0.56 nM
6 | CCN(CC)[C@@H](C)CNC(=O)c1cc(O[C@H]2CCOC2)nc(-c2cnn3ccc(-c4cccs4)nc23)c1 [Example 345, N—((S)-2-(diethylamino)propyl)-2-(((S)-tetrahydrofuran-3-yl)oxy)-6-(5-(thiophen-2-yl)pyrazolo[1,5-a]pyrimidin-3-yl)isonicotinamide] | 1.22 nM
7 | CCN(CC)[C@@H](C)CNC(=O)c1cc(O[C@@H]2CCOC2)nc(-c2cnn3ccc(-c4cccs4)nc23)c1 [Example 346, N—((S)-2-(diethylamino)propyl)-2-(((R)-tetrahydrofuran-3-yl)oxy)-6-(5-(thiophen-2-yl)pyrazolo[1,5-a]pyrimidin-3-yl)isonicotinamide] | 1.07 nM
8 | CCN(CC)[C@@H](C)CNC(=O)c1cc(OCC2(C)COC2)nc(-c2cnn3ccc(-c4cccs4)nc23)c1 [Example 349, (S)—N-(2-(diethylamino)propyl)-2-((3-methyloxetan-3-yl)methoxy)-6-(5-(thiophen-2-yl)pyrazolo[1,5-a]pyrimidin-3-yl)isonicotinamide] | 0.56 nM
9 | CCN(CC)[C@@H](C)CNC(=O)c1cc(OCCc2cnccn2)nc(-c2cnn3ccc(-c4cccs4)nc23)c1 [Example 350, (S)—N-(2-(diethylamino)propyl)-2-(2-(pyrazin-2-yl)ethoxy)-6-(5-(thiophen-2-yl)pyrazolo[1,5-a]pyrimidin-3-yl)isonicotinamide] | 0.31 nM
10 | CCN(CC)[C@@H](C)CNC(=O)c1cc(OCCCOC)nc(-c2cnn3ccc(-c4cccs4)nc23)c1 [Example 351, (S)—N-(2-(diethylamino)propyl)-2-(3-methoxypropoxy)-6-(5-(thiophen-2-yl)pyrazolo[1,5-a]pyrimidin-3-yl)isonicotinamide] | 0.34 nM
11 | CCN(CC)[C@@H](C)CNC(=O)c1cc(OCc2cccnc2)nc(-c2cnn3ccc(-c4cccs4)nc23)c1 [Example 354, (S)—N-(2-(diethylamino)propyl)-2-(pyridin-3-ylmethoxy)-6-(5-(thiophen-2-yl)pyrazolo[1,5-a]pyrimidin-3-yl)isonicotinamide] | 1.05 nM
12 | CCN(CC)[C@@H](C)CNC(=O)c1cc(OCc2ccc[n+]([O-])c2)nc(-c2cnn3ccc(-c4cccs4)nc23)c1 [Example 355, (S)-3-(((4-((2-(diethylamino)propyl)carbamoyl)-6-(5-(thiophen-2-yl)pyrazolo[1,5-a]pyrimidin-3-yl)pyridin-2-yl)oxy)methyl)pyridine 1-oxide] | 0.54 nM
13 | CCC(CNC(=O)c1cc(-c2cnn3ccc(-c4cccs4)nc23)nc(N2CC[C@H]2C(=O)NC)c1)N(CC)CC (stereo partly drawn) [Example 356, N-(2-(diethylamino)butyl)-2-((S)-2-(methylcarbamoyl)azetidin-1-yl)-6-(5-(thiophen-2-yl)pyrazolo[1,5-a]pyrimidin-3-yl)isonicotinamide] | 0.7 nM
14 | CCN(CC)[C@@H](CO)CNC(=O)c1cc(-c2cnn3ccc(-c4cccs4)nc23)nc(N2CC[C@H]2C(=O)NC)c1 [Example 358, N—((R)-2-(diethylamino)-3-hydroxypropyl)-2-((S)-2-(methylcarbamoyl)azetidin-1-yl)-6-(5-(thiophen-2-yl)pyrazolo[1,5-a]pyrimidin-3-yl)isonicotinamide] | 0.46 nM
15 | CCN(CC)[C@@H](CO)CNC(=O)c1cc(-c2cnn3ccc(-c4cccs4)nc23)nc(N2CC[C@H]2C(=O)NC)c1 [Example 359, N—((R)-2-(diethylamino)-3-hydroxypropyl)-2-((S)-2-(methylcarbamoyl)azetidin-1-yl)-6-(5-(thiophen-2-yl)pyrazolo[1,5-a]pyrimidin-3-yl)isonicotinamide] | 0.35 nM
16 | CCN(CC)CCNC(=O)c1cc(-c2cnn3ccc(-c4cccs4)nc23)nc(N2CC[C@H]2C(=O)NC)c1 [Example 360, (S)—N-(2-(diethylamino)ethyl)-2-(2-(methylcarbamoyl)azetidin-1-yl)-6-(5-(thiophen-2-yl)pyrazolo[1,5-a]pyrimidin-3-yl)isonicotinamide] | 2.98 nM
17 | CCN(CC)[C@@H](C)CNC(=O)c1cncc(-c2cnn3ccc(-c4cccs4)nc23)c1 [Example 362, (S)—N-(2-(diethylamino)propyl)-5-(5-(thiophen-2-yl)pyrazolo[1,5-a]pyrimidin-3-yl)nicotinamide] | 0.52 nM
18 | CCN(CC)[C@@H](C)CNC(=O)c1cc(-c2cnn3ccc(-c4cccs4)nc23)ccn1 [Example 363, (S)—N-(2-(diethylamino)propyl)-4-(5-(thiophen-2-yl)pyrazolo[1,5-a]pyrimidin-3-yl)picolinamide] | 1.3 nM
19 | CCN(CC)[C@@H](C)CNC(=O)c1cccc(-c2cnn3ccc(-c4cccs4)nc23)n1 [Example 364, (S)—N-(2-(diethylamino)propyl)-6-(5-(thiophen-2-yl)pyrazolo[1,5-a]pyrimidin-3-yl)picolinamide] | 715 nM

The next compounds have a lower IC50 than those just listed; values first:

Row | IC50 | SMILES
20 | 0.27 nM | CCCN(CC)[C@@H](C)CNC(=O)c1cc(-c2cnn3ccc(-c4cccs4)nc23)nc(N2CC[C@H]2C(=O)NC)c1 [Example 357, N—((S)-2-(ethyl(propyl)amino)propyl)-2-((S)-2-(methylcarbamyl)azetidin-1-yl)-6-(5-(thiophen-2-yl)pyrazolo[1,5-a]pyrimidin-3-yl)isonicotinamide]
21 | 0.26 nM | CCN(CC)[C@@H](C)CNC(=O)c1cc(OC[C@H]2CCCO2)nc(-c2cnn3ccc(-c4cccs4)nc23)c1 [Example 343, N—((S)-2-(diethylamino)propyl)-2-(((R)-tetrahydrofuran-2-yl)methoxy)-6-(5-(thiophen-2-yl)pyrazolo[1,5-a]pyrimidin-3-yl)isonicotinamide]
22 | 0.21 nM | CCN(CC)[C@@H](C)CNC(=O)c1cc(OCCN2CCOCC2)nc(-c2cnn3ccc(-c4cccs4)nc23)c1 [Example 352, (S)—N-(2-(diethylamino)propyl)-2-(2-morpholinoethoxy)-6-(5-(thiophen-2-yl)pyrazolo[1,5-a]pyrimidin-3-yl)isonicotinamide]
23 | 0.19 nM | CCN(CC)[C@@H](C)CNC(=O)c1cc(-c2c[nH]nc2C(F)(F)F)nc(-c2cnn3ccc(-c4cccs4)nc23)c1 [Example 334, (S)—N-(2-(diethylamino)propyl)-2-(5-(thiophen-2-yl)pyrazolo[1,5-a]pyrimidin-3-yl)-6-(3-(trifluoromethyl)-1H-pyrazol-4-yl)isonicotinamide]
24 | 0.15 nM | CCN(CC)[C@@H](C)CNC(=O)c1cc(-c2cnn(CCC#N)c2)nc(-c2cnn3ccc(-c4cccs4)nc23)c1 [Example 341, (S)-2-(1-(2-cyanoethyl)-1H-pyrazol-4-yl)-N-(2-(diethylamino)propyl)-6-(5-(thiophen-2-yl)pyrazolo[1,5-a]pyrimidin-3-yl)isonicotinamide]
25 | 0.15 nM | CCN(CC)[C@@H](C)CNC(=O)c1cc(-c2cnn3ccc(-c4ccc(F)s4)nc23)nc(N2CC[C@H]2C(=O)NC)c1 [Example 361, N—((S)-2-(diethylamino)propyl)-2-(5-(5-fluorothiophen-2-yl)pyrazolo[1,5-a]pyrimidin-3-yl)-6-((S)-2-(methylcarbamoyl)azetidin-1-yl)isonicotinamide]
26 | 0.13 nM | CCN(CC)[C@@H](C)CNC(=O)c1cc(-c2cnn(C3COC3)c2)nc(-c2cnn3ccc(-c4cccs4)nc23)c1 [Example 342, (S)—N-(2-(diethylamino)propyl)-2-(1-(oxetan-3-yl)-1H-pyrazol-4-yl)-6-(5-(thiophen-2-yl)pyrazolo[1,5-a]pyrimidin-3-yl)isonicotinamide]
27 | 0.1 nM | CCN(CC)[C@@H](C)CNC(=O)c1cc(-c2cc[nH]n2)nc(-c2cnn3ccc(-c4cccs4)nc23)c1 [Example 336, (S)—N-(2-(diethylamino)propyl)-2-(1H-pyrazol-3-yl)-6-(5-(thiophen-2-yl)pyrazolo[1,5-a]pyrimidin-3-yl)isonicotinamide]
28 | 0.1 nM | CCN(CC)[C@@H](C)CNC(=O)c1cc(OCC(C)(C)O)nc(-c2cnn3ccc(-c4cccs4)nc23)c1 [Example 353, (S)—N-(2-(diethylamino)propyl)-2-(2-hydroxy-2-methylpropoxy)-6-(5-(thiophen-2-yl)pyrazolo[1,5-a]pyrimidin-3-yl)isonicotinamide]
29 | 0.05 nM | CCN(CC)[C@@H](C)CNC(=O)c1cc(-c2cn[nH]c2)nc(-c2cnn3ccc(-c4cccs4)nc23)c1 [Example 340, (S)—N-(2-(diethylamino)propyl)-2-(1H-pyrazol-4-yl)-6-(5-(thiophen-2-yl)pyrazolo[1,5-a]pyrimidin-3-yl)isonicotinamide]
